Experimental data from ChEMBL document CHEMBL3137667, “[Drug-induced liver injury; fourteenth updated edition of the bibliographic database of liver injuries and related drugs]” (Gastroenterol Clin Biol, 2004).

Experiments:
[1] = Highest frequency of acute liver toxicity observed during clinical trials, expressed as a percentage. [column '% AIGUE' in source]; conditions: human
[2] = human, serum
[3] = human, serum; remark: listed apart in the source
[4] = human
[5] = human; remark: listed apart in the source
[6] = human, serum, 4383 h
[7] = Times to onset, minimal and maximal, observed in the indexed observations. [column 'DELAI' in source]; conditions: human
[8] = human; remark: listed apart in the source
[9] = Highest frequency of moderate liver toxicity observed during clinical trials, expressed as a percentage. [column '% BIOL' in source]; conditions: human
[10] = human; remark: listed apart in the source
[11] = human; remark: listed apart in the source
[12] = human; remark: listed apart in the source
[13] = human; remark: listed apart in the source
[14] = Comments (NB not yet translated). [column 'COMMENTAIRES' in source]; conditions: human
[15] = human; remark: listed apart in the source
[16] = human; remark: listed apart in the source
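For Hepatotoxicity (association with vascular disease) in this document: count of indexed literature references reporting vascular liver injury in humans, e.g. peliosis hepatitis, hepatic veno-occlusive disease or Budd-Chiari syndrome.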
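For Hepatotoxicity (benign tumour) in this document: value is a count of indexed literature references citing a benign tumour confirmed by histopathology.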
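For Hepatotoxicity (choleostasis) in this document: human cholestatic liver injury, shown by histopathology or by peak ALT or AST elevation over alkaline phosphatase ratio below 2, value counts indexed literature reports.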
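For Hepatotoxicity (chronic liver disease) in this document: chronic liver injury confirmed by histopathology or persistently raised serum aminotransferase activity beyond 6 months, value given as the count of indexed literature references.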
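For Hepatotoxicity (cirrhosis) in this document: value is a count of indexed literature references reporting cirrhosis confirmed by histopathology.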
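For Hepatotoxicity (cytolytic) in this document: human cytolytic liver injury, shown by histopathology or by a ratio above 5 of peak ALT or AST elevation to alkaline phosphatase elevation, value counts indexed references.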
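For Hepatotoxicity (granulomatous hepatitis) in this document: value is a count of indexed literature references reporting granulomatous liver disease confirmed by histopathology.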
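For Hepatotoxicity (malignant tumour) in this document: malignant tumour confirmed by histopathology, value gives the count of indexed literature references reporting it.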
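For Hepatotoxicity (severe hepatitis) in this document: human clinical data: severe hepatitis, meaning potentially life-threatening liver failure or clinically observed cases, the value counts how many indexed literature references report it.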
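For Hepatotoxicity (steatosis) in this document: steatosis confirmed by histopathology, value is the count of indexed references.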

CCCCC1C(=O)N(c2ccccc2)N(c2ccc(O)cc2)C1=O (stereo not given) [OXYPHENBUTAZONE ANHYDROUS]
Hepatotoxicity (acute) [1]: 0%
Hepatotoxicity (acute) [2]: 9
Hepatotoxicity (moderate) [3]: 3
Hepatotoxicity (steatosis) [4]: 1
Hepatotoxicity (association with vascular disease) [5]: 0
Hepatotoxicity (chronic liver disease) [6]: 0
Hepatotoxicity (time to onset) [7]: 1 week - 2 months
Hepatotoxicity (benign tumour) [8]: 0
Hepatotoxicity (moderate) [9]: 0%
Hepatotoxicity (choleostasis) [10]: 3
Hepatotoxicity (severe hepatitis) [11]: 3
Hepatotoxicity (malignant tumour) [12]: 0
Hepatotoxicity (cytolytic) [13]: 4
Hepatotoxicity (comment) [14]: RC/PHENYLBUTAZONE
Hepatotoxicity (granulomatous hepatitis) [15]: 5
Hepatotoxicity (cirrhosis) [16]: 1

C1CCC(C(CC2CCCCN2)C2CCCCC2)CC1 (stereo not given) [PERHEXILINE]
Hepatotoxicity (acute) [1]: 0%
Hepatotoxicity (acute) [2]: 11
Hepatotoxicity (moderate) [3]: 18
Hepatotoxicity (steatosis) [4]: 10
Hepatotoxicity (association with vascular disease) [5]: 0
Hepatotoxicity (chronic liver disease) [6]: 1
Hepatotoxicity (time to onset) [7]: 3 weeks - 12 years
Hepatotoxicity (benign tumour) [8]: 0
Hepatotoxicity (moderate) [9]: 30%
Hepatotoxicity (choleostasis) [10]: 2
Hepatotoxicity (severe hepatitis) [11]: 5
Hepatotoxicity (malignant tumour) [12]: 0
Hepatotoxicity (cytolytic) [13]: 9
Hepatotoxicity (comment) [14]: I/AMIODARONE/BEZAFIBRATE/PAROXETINE INCLUSIONLAMELLAIRE
Hepatotoxicity (granulomatous hepatitis) [15]: 1
Hepatotoxicity (cirrhosis) [16]: 22

CC(Cc1ccccc1)NN (stereo not given) [PHENIPRAZINE]
Hepatotoxicity (acute) [1]: 0%
Hepatotoxicity (acute) [2]: 7
Hepatotoxicity (moderate) [3]: 0
Hepatotoxicity (steatosis) [4]: 0
Hepatotoxicity (association with vascular disease) [5]: 0
Hepatotoxicity (chronic liver disease) [6]: 0
Hepatotoxicity (time to onset) [7]: 2 weeks - 7 months
Hepatotoxicity (benign tumour) [8]: 0
Hepatotoxicity (moderate) [9]: 0%
Hepatotoxicity (choleostasis) [10]: 0
Hepatotoxicity (severe hepatitis) [11]: 5
Hepatotoxicity (malignant tumour) [12]: 0
Hepatotoxicity (cytolytic) [13]: 7
Hepatotoxicity (comment) [14]: RC/NIALAMIDE/IPRONIAZIDE
Hepatotoxicity (granulomatous hepatitis) [15]: 0
Hepatotoxicity (cirrhosis) [16]: 0

CCc1ccc(CCOc2ccc(CC3SC(=O)NC3=O)cc2)nc1 (stereo not given) [PIOGLITAZONE]
Hepatotoxicity (acute) [1]: 0%
Hepatotoxicity (acute) [2]: 5
Hepatotoxicity (moderate) [3]: 3
Hepatotoxicity (steatosis) [4]: 0
Hepatotoxicity (association with vascular disease) [5]: 0
Hepatotoxicity (chronic liver disease) [6]: 0
Hepatotoxicity (time to onset) [7]: 23 days - 7 months
Hepatotoxicity (benign tumour) [8]: 0
Hepatotoxicity (moderate) [9]: 0.4%
Hepatotoxicity (choleostasis) [10]: 3
Hepatotoxicity (severe hepatitis) [11]: 1
Hepatotoxicity (malignant tumour) [12]: 0
Hepatotoxicity (cytolytic) [13]: 3
Hepatotoxicity (comment) [14]: CHOLESTASE_PROLONGEE PERICHOLANGIOLITE CHOLANGIOLITE
Hepatotoxicity (granulomatous hepatitis) [15]: 0
Hepatotoxicity (cirrhosis) [16]: 0

C[C@]12C=CC(=O)C=C1CC[C@@H]1[C@@H]2[C@@H](O)C[C@@]2(C)[C@H]1CC[C@]2(O)C(=O)CO [PREDNISOLONE]
Hepatotoxicity (acute) [1]: 0%
Hepatotoxicity (acute) [2]: 2
Hepatotoxicity (moderate) [3]: 0
Hepatotoxicity (steatosis) [4]: 2
Hepatotoxicity (association with vascular disease) [5]: 0
Hepatotoxicity (chronic liver disease) [6]: 0
Hepatotoxicity (time to onset) [7]: 6 days - 8 years
Hepatotoxicity (benign tumour) [8]: 1
Hepatotoxicity (moderate) [9]: 0%
Hepatotoxicity (choleostasis) [10]: 0
Hepatotoxicity (severe hepatitis) [11]: 2
Hepatotoxicity (malignant tumour) [12]: 0
Hepatotoxicity (cytolytic) [13]: 2
Hepatotoxicity (comment) [14]: AGGRAVATION_ANGIOMES
Hepatotoxicity (granulomatous hepatitis) [15]: 0
Hepatotoxicity (cirrhosis) [16]: 0

CN1CCN(CCCN2c3ccccc3Sc3ccc(Cl)cc32)CC1 [PROCHLORPERAZINE]
Hepatotoxicity (acute) [1]: 0%
Hepatotoxicity (acute) [2]: 9
Hepatotoxicity (moderate) [3]: 0
Hepatotoxicity (steatosis) [4]: 0
Hepatotoxicity (association with vascular disease) [5]: 0
Hepatotoxicity (chronic liver disease) [6]: 3
Hepatotoxicity (time to onset) [7]: 1 week - 4 months
Hepatotoxicity (benign tumour) [8]: 0
Hepatotoxicity (moderate) [9]: 0%
Hepatotoxicity (choleostasis) [10]: 6
Hepatotoxicity (severe hepatitis) [11]: 3
Hepatotoxicity (malignant tumour) [12]: 0
Hepatotoxicity (cytolytic) [13]: 3
Hepatotoxicity (comment) [14]: I/IPRONIAZIDE CHOLESTASE_PROLONGEE DUCTOPENIE
Hepatotoxicity (granulomatous hepatitis) [15]: 0
Hepatotoxicity (cirrhosis) [16]: 0

CC(=O)[C@H]1CC[C@H]2[C@@H]3CCC4=CC(=O)CC[C@]4(C)[C@H]3CC[C@]12C [PROGESTERONE]
Hepatotoxicity (acute) [1]: 0%
Hepatotoxicity (acute) [2]: 3
Hepatotoxicity (moderate) [3]: 2
Hepatotoxicity (steatosis) [4]: 0
Hepatotoxicity (association with vascular disease) [5]: 0
Hepatotoxicity (chronic liver disease) [6]: 0
Hepatotoxicity (time to onset) [7]: 1 week - 40 weeks
Hepatotoxicity (benign tumour) [8]: 1
Hepatotoxicity (moderate) [9]: 13.3%
Hepatotoxicity (choleostasis) [10]: 1
Hepatotoxicity (severe hepatitis) [11]: 0
Hepatotoxicity (malignant tumour) [12]: 0
Hepatotoxicity (cytolytic) [13]: 2
Hepatotoxicity (comment) [14]: HNF
Hepatotoxicity (granulomatous hepatitis) [15]: 0
Hepatotoxicity (cirrhosis) [16]: 0

O=C(c1ccc(OCCN2CCCCC2)cc1)c1c(-c2ccc(O)cc2)sc2cc(O)ccc12 [RALOXIFENE]
Hepatotoxicity (acute) [1]: 0%
Hepatotoxicity (acute) [2]: 1
Hepatotoxicity (moderate) [3]: 1
Hepatotoxicity (steatosis) [4]: 0
Hepatotoxicity (association with vascular disease) [5]: 0
Hepatotoxicity (chronic liver disease) [6]: 0
Hepatotoxicity (time to onset) [7]: 30 days
Hepatotoxicity (benign tumour) [8]: 0
Hepatotoxicity (moderate) [9]: 16.7%
Hepatotoxicity (choleostasis) [10]: 1
Hepatotoxicity (severe hepatitis) [11]: 0
Hepatotoxicity (malignant tumour) [12]: 0
Hepatotoxicity (cytolytic) [13]: 0
Hepatotoxicity (comment) [14]: CHOLESTASE_PROLONGEE
Hepatotoxicity (granulomatous hepatitis) [15]: 0
Hepatotoxicity (cirrhosis) [16]: 0

Cc1nc2n(c(=O)c1CCN1CCC(c3noc4cc(F)ccc34)CC1)CCCC2 [RISPERIDONE]
Hepatotoxicity (acute) [1]: 4%
Hepatotoxicity (acute) [2]: 6
Hepatotoxicity (moderate) [3]: 4
Hepatotoxicity (steatosis) [4]: 4
Hepatotoxicity (association with vascular disease) [5]: 0
Hepatotoxicity (chronic liver disease) [6]: 0
Hepatotoxicity (time to onset) [7]: 2 days - 1 year
Hepatotoxicity (benign tumour) [8]: 0
Hepatotoxicity (moderate) [9]: 6%
Hepatotoxicity (choleostasis) [10]: 2
Hepatotoxicity (severe hepatitis) [11]: 0
Hepatotoxicity (malignant tumour) [12]: 0
Hepatotoxicity (cytolytic) [13]: 5
Hepatotoxicity (comment) [14]: PERICHOLANGITE HYPERBILIRUBINEMIE
Hepatotoxicity (granulomatous hepatitis) [15]: 0
Hepatotoxicity (cirrhosis) [16]: 0

C#CCN(C)[C@H](C)Cc1ccccc1 [SELEGILINE]
Hepatotoxicity (acute) [1]: 0%
Hepatotoxicity (acute) [2]: 1
Hepatotoxicity (moderate) [3]: 2
Hepatotoxicity (steatosis) [4]: 0
Hepatotoxicity (association with vascular disease) [5]: 0
Hepatotoxicity (chronic liver disease) [6]: 0
Hepatotoxicity (time to onset) [7]: 3 months
Hepatotoxicity (benign tumour) [8]: 0
Hepatotoxicity (moderate) [9]: 4%
Hepatotoxicity (choleostasis) [10]: 1
Hepatotoxicity (severe hepatitis) [11]: 0
Hepatotoxicity (malignant tumour) [12]: 0
Hepatotoxicity (cytolytic) [13]: 0
Hepatotoxicity (comment) [14]: CHOLESTASE_PROLONGEE
Hepatotoxicity (granulomatous hepatitis) [15]: 0
Hepatotoxicity (cirrhosis) [16]: 0
